Data as given in patent US4894340A, “Microbial sulfhydryl oxidase and method” (priority 1987, dated 1990).
Like-named read-outs stand apart in the source and are kept apart here.

What was measured:
[1] = tested on: A. niger sulfhydryl oxidase; assay: NAD/NADP as electron acceptors, absorbance at 340 nm; format: biochemical, Aspergillus niger; conditions: in the presence of sulfhydryl oxidase and 4 mM GSH
[2] = tested on: A. niger sulfhydryl oxidase; assay: Polarographic O2 depletion assay of sulfhydryl oxidase with thiol compounds and substrates of other oxidases; format: biochemical, Aspergillus niger; conditions: for Activity toward substrates of other known oxidases: test compound 10 mM in 40 mM sodium acetate at pH 5.5; for kcat (app)/Km (app) (head is drawing 1) / kcat (app) / Km: purified enzyme, polarographic assay; for kcat (app) / Km: double reciprocal plot; for Km: read-out: Km (app)
Protocol: Two assays have been employed to determine SHX activity. The first assay is based on the depletion of O2 from assay mixtures containing thiol compounds; oxygen depletion is measured polarographically by oxygen electrode techniques. One unit of SHX is defined as that amount of enzyme which would utilize or consume 1 umol of O2 per minute under the conditions of the assay.
Rates of O2 depletion by the purified enzyme were measured at selected concentrations of GSH, cysteine, dithiothreitol and 2-mercapto-ethanol. […] Kinetic constants were calculated from the double reciprocal plot by linear regression fitting of the data points.
The enzyme was tested for activity toward substrates of other known oxidases, including D-glucose, D-fructose, L-lysine, D-lysine, benzylamine, xanthine, putrescine, catechol, nicotinamide adenine dinucleotide (reduced) ("NADH") and nicotinamide adenine dinucleotide phosphate (reduced) ("NADPH").
In a typical assay, 2.9 mL of a mixture consisting of a thiol compound in an appropriate buffer was equilibrated with stirring to 25° C. After the vial was sealed with the electrode, a volume of 0.1 mL of enzyme solution was injected into the assay mixture. […] One unit of sulfhydryl oxidase was defined as that amount of enzyme which would deplete 1 umole of O2 per minute under the conditions of the assay. Unless otherwise indicated, the assay mixture contained 8 mM GSH in 40 mM acetate buffer, pH 5.5, at 25° C.

sulfhydryl apooxidase = assay: Reactivation of sulfhydryl apooxidase by resolved flavins or standards; format: biochemical, Aspergillus niger; conditions: for Activity: apooxidase after 14 hours incubation at 0° C. with resolved flavins or standards
Source text: At […], FAD is weakly fluorescent owing to quenching by its adenine moiety. FMN and other nonadenylated flavins, on the other hand, fluoresce strongly under both conditions of pH (Bessey et al., 1949); Cerletti and Siliprandi, 1958). Thus the ratio of fluorescence at basic pH to that at acidic pH distinguishes adenylated from nonadenylated flavins. […] When the isolated flavins were recombined with sulfhydryl apooxidase, only the product of treatment by boiling was capable of restoring activity to the enzyme.
Determination of sulfhydryl oxidase activity was based upon depletion of O2 from assay mixtures containing thiol compounds, as measured with a Yellow Springs Instruments oxygen monitor (model 500) equipped with a polarographic Clark-type electrodes. In a typical assay, 2.9 mL of a mixture consisting of a thiol compound in an appropriate buffer was equilibrated with stirring to 25° C. After the vial was sealed with the electrode, a volume of 0.1 mL of enzyme solution was injected into the assay mixture. The rate of oxygen depletion was constant during the first 30 seconds of the assay; thus, the initial rate of O2 depletion was taken to be sulfhydryl oxidase activity under the prevailing conditions. One unit of sulfhydryl oxidase was defined as that amount of enzyme which would deplete 1 umole of O2 per minute under the conditions of the assay. Unless otherwise indicated, the assay mixture contained 8 mM GSH in 40 mM acetate buffer, pH 5.5, at 25° C.
In reactivation experiments, freshly prepared apoenzyme was combined with flavin solution and 0.1M sodium phosphate buffer, pH 7.0, in the volume proportions 1:1:2. This mixture was incubated for 14 to 16 hours at 0° C. After the incubation period, the enzyme was separated from excess free flavin by passage through a Pharmacia PD-10 column equilibrated and eluted with 40 mM acetate buffer, pH 5.5.
The flavin component was also extracted from the enzyme by two other methods. Dialyzed sulfhydryl oxidase was boiled for 5 minutes with protection from light and cooled quickly by immersion in ice water. […]

[3] = tested on: A. niger sulfhydryl oxidase; assay: Sulfhydryl oxidase activity in presence of chelating agents; format: biochemical, Aspergillus niger; conditions: 1 mM chelating agent in 0.05M phosphate buffer, pH 7.0, even after overnight incubation
Source text: Since flavin oxidases containing essential metal ions are known to exist, sulfhydryl oxidase was examined for changes in activity upon treatment with the chelating agents.

[4] = target: T1, flavin sulfhydryl oxidase from rat epididymal fluid (Rattus norvegicus, UniProt Q6IUU3); conditions: concentrations as high as 0.1M; cited from earlier work
T1 construct: flavin sulfhydryl oxidase from rat epididymal fluid; host or cells: rat epididymal fluid as printed
T1 sequence (Q6IUU3 33-750): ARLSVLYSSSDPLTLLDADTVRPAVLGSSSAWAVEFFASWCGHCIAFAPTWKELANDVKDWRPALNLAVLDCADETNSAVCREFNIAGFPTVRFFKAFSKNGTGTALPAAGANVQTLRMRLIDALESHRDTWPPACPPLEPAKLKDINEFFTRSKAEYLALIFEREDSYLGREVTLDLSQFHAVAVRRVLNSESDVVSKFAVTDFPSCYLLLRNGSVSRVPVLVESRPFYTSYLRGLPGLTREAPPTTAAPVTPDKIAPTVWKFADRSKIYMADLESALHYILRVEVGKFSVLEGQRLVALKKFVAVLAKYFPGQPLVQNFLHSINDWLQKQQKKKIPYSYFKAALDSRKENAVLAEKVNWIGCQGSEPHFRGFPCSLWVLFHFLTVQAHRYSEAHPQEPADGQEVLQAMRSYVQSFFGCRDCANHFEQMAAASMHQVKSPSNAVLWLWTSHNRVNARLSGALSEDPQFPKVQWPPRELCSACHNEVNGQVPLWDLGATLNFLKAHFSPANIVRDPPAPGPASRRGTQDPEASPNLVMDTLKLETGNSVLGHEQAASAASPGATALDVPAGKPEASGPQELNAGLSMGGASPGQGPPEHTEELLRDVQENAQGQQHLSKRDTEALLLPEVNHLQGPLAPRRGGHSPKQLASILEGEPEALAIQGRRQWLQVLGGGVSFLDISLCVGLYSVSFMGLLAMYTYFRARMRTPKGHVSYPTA

[5] = target: A. niger sulfhydryl oxidase; assay: Spectral titration with sodium sulfite (flavin-sulfite complex); format: binding, Aspergillus niger; conditions: read-out: Dissociation constant Kd of flavin-sulfite complex
Protocol: FIG. 3: Absorption spectra of purified sulfhydryl oxidase after reaction with sodium sulfite at pH 6, showing bleaching of the visible bond of SHX spectrum. Each spectrum was recorded 10 minutes after the addition of a small aliquot of sodium sulfite to a cuvette containing 1.8 mg/mL SHX in 50 mM sodium phosphate. Sulfite concentrations after each addition were 0 mM(1), 0.99 mM(2), 2.44 mM(3) and 152 mM(4).
Additional spectral analysis confirms that the SHX of the present invention is a flavoprotein. Most flavin oxidases, but not flavin dehydrogenases, react with sodium sulfite to form a bleached flavin-sulfite complex (Massey et al., 1969). The spectral change incurred by incubation of sulfhydryl oxidase with sodium sulfite at varying concentrations is show in FIG. 3. The dissociation constant Kd =[SHX][SO2 ]/[SHX-SO2 ]for the sulfhydryl oxidase flavin-sulfite complex was calculated from the first few spectra under the assumption that spectrum 4 in FIG. 3 represented full conversion of the enzyme to the sulfite complex, and that the initial excess of sulfite was so large that its concentration was essentially unchanged at equilibrium. The first assumption was justified by the fact that spectrum 4 (152.8 mM sulfite) was identical with the spectrum recorded when the sulfite concentration was just 42.8 mM (not shown).

NC(=O)c1ccc[n+]([C@@H]2O[C@H](COP(=O)([O-])OP(=O)(O)OC[C@H]3O[C@@H](n4cnc5c(N)ncnc54)[C@H](OP(=O)(O)O)[C@@H]3O)[C@@H](O)[C@H]2O)c1 [NADP]
Electron acceptor, increase in absorbance at 340 nm [1]: did not act as electron acceptors

NC(=O)C1=CN([C@@H]2O[C@H](COP(=O)(O)OP(=O)(O)OC[C@H]3O[C@@H](n4cnc5c(N)ncnc54)[C@H](O)[C@@H]3O)[C@@H](O)[C@H]2O)C=CC1 [NADH, nicotinamide adenine dinucleotide (reduced)]
Activity toward substrates of other known oxidases [2]: failed to stimulate

NCCCCN [putrescine]
Activity toward substrates of other known oxidases [2]: failed to stimulate

Oc1ccccc1O [catechol]
Activity toward substrates of other known oxidases [2]: failed to stimulate

O=c1[nH]c(=O)c2[nH]cnc2[nH]1 [xanthine]
Activity toward substrates of other known oxidases [2]: failed to stimulate

Cc1cc2nc3c(=O)[nH]c(=O)nc-3n(C[C@H](O)[C@H](O)[C@H](O)COP(=O)(O)OP(=O)(O)OC[C@H]3O[C@@H](n4cnc5c(N)ncnc54)[C@H](O)[C@@H]3O)c2cc1C [Authentic FAD, flavin adenine dinucleotide]
Activity (sulfhydryl apooxidase): 0.58 units/mL

O[C@H](CS)[C@H](O)CS (racemic) [Dithiothreitol]
kcat (app)/Km (app) (head is drawing 1) [2]: 110 min^-1 M^- 1
kcat (app) [2]: 119 s⁻¹
Km [2]: 66 mM

OCCS [2-Mercaptoethanol]
kcat (app)/Km (app) (head is drawing 1) [2]: 26 min^-1 M^- 1
kcat (app) [2]: 145.2 s⁻¹

N[C@@H](CS)C(=O)O [Cysteine]
kcat (app)/Km (app) (head is drawing 1) [2]: 230 min^-1 M^- 1
kcat (app) [2]: 166.2 s⁻¹
Km [2]: 43 mM

c1cnc2c(c1)ccc1cccnc12 [o-phenanthroline]
Change in sulfhydryl oxidase activity [3]: No activity decreases

OC[C@H]1OC(O)[C@H](O)[C@@H](O)[C@@H]1O (stereo partly drawn) [D-glucose]
Activity toward substrates of other known oxidases [2]: failed to stimulate

NC(=O)c1ccc[n+]([C@@H]2O[C@H](COP(=O)([O-])OP(=O)(O)OC[C@H]3O[C@@H](n4cnc5c(N)ncnc54)[C@H](O)[C@@H]3O)[C@@H](O)[C@H]2O)c1 [NAD]
Electron acceptor, increase in absorbance at 340 nm [1]: did not act as electron acceptors

NCCCC[C@@H](N)C(=O)O [D-lysine]
Activity toward substrates of other known oxidases [2]: failed to stimulate

O=S([O-])[O-].[Na+].[Na+] [sodium sulfite]
Reaction with sulfite (changes in visible spectrum) [4]: failed to react
Kd ([5]; from spectrum 1 of FIG. 3, pH 6, 50 mM sodium phosphate): 3040 µM
Kd ([5]; from spectrum 2 of FIG. 3, pH 6, 50 mM sodium phosphate): 2950 µM

N[C@@H](CCC(=O)N[C@@H](CS)C(=O)NCC(=O)O)C(=O)O [Glutathione]
kcat (app)/Km (app) (head is drawing 1) [2]: 26,000 min^-1 M^- 1
kcat (app) [2]: 131.2 s⁻¹
Km [2]: 0.3 mM

NC(=O)C1=CN([C@@H]2O[C@H](COP(=O)(O)OP(=O)(O)OC[C@H]3O[C@@H](n4cnc5c(N)ncnc54)[C@H](OP(=O)(O)O)[C@@H]3O)[C@@H](O)[C@H]2O)C=CC1 [NADPH, nicotinamide adenine dinucleotide phosphate (reduced)]
Activity toward substrates of other known oxidases [2]: failed to stimulate

Cc1cc2nc3c(=O)[nH]c(=O)nc-3n(C[C@H](O)[C@H](O)[C@H](O)COP(=O)(O)O)c2cc1C [Authentic FMN, flavin mononucleotide]
Activity (sulfhydryl apooxidase): 0.0 units/mL
Restoration of apooxidase activity toward GSH (sulfhydryl apooxidase; excess FMN, pH 3 to 9, various buffer salts): did not result in any detectable restoration of activity

O=C(CO)[C@@H](O)[C@H](O)[C@H](O)CO [D-fructose]
Activity toward substrates of other known oxidases [2]: failed to stimulate

Oc1cccc2cccnc12 [8-hydroxyquinoline]
Change in sulfhydryl oxidase activity [3]: No activity decreases

NCCCC[C@H](N)C(=O)O [L-lysine]
Activity toward substrates of other known oxidases [2]: failed to stimulate

NCc1ccccc1 [benzylamine]
Activity toward substrates of other known oxidases [2]: failed to stimulate
